Legend:
redroot pigweed = test: Test Example 5: herbicidal effect by foliage application, plastic box (Table 20, symbol N); format: in vivo, redroot pigweed (Amaranthus retroflexus); details: foliage application; for N (redroot pigweed) herbicidal effect grade: 320 g/ha, evaluated 3 weeks after application
Procedure, shortened: (§1)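 Sow seeds spot-wise in sterilized diluvial soil; cover with ~1.5 cm soil. Grow 14 days in greenhouse, 25° C. to 30° C. Spray foliage with emulsion diluted to predetermined amount. Rate effect after 3 weeks.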

lambsquarters = test: Test Example 5: herbicidal effect by foliage application, plastic box (Table 20, symbol O); format: in vivo, lambsquarters (Chenopodium album); details: foliage application; for O (lambsquarters) herbicidal effect grade: 320 g/ha, evaluated 3 weeks after application
Procedure, shortened: as §1

blackgrass = test: Test Example 4: herbicidal effect by soil treatment (Table 19, symbol J); format: in vivo, blackgrass (Alopecurus myosuroides)
Procedure, shortened: (§2)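 Soil-surface application: an emulsion agent diluted with water to the predetermined dose is sprayed uniformly over seeds lying under roughly 1.5 cm of sterilized diluvial soil. Boxes stay in a greenhouse at 25° C. to 30° C. Three weeks later, each species is graded on previously defined criteria.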

green foxtail = test: Test Example 5: herbicidal effect by foliage application, plastic box (Table 20, symbol G); format: in vivo, green foxtail (Setaria viridis); details: foliage application; for G (green foxtail) herbicidal effect grade: 320 g/ha, evaluated 3 weeks after application
Procedure, shortened: as §1

oval-leafed pondweed = test: Test Example 2: herbicidal activity, application during weed generation under submerged conditions (Table 17, symbol C); format: in vivo, oval-leafed pondweed (Monochoria vaginalis); details: for herbicidal effect rating, C: oval-leafed pondweed: application during weed generation, submerged conditions
Procedure, shortened: (§3)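 Mixed weed seedlings in alluvial soil under a 4 cm water layer, greenhouse-grown at 25–30° C. Compound given as a diluted emulsion into the floodwater at the 1–2 leaf stage; response graded after three weeks.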

barnyard grass [1] = test: Test Example 4: herbicidal effect by soil treatment (Table 19, symbol H); format: in vivo, barnyard grass (Echinochloa crus-galli)
Procedure, shortened: as §2

southern crabgrass [2] = test: Test Example 4: herbicidal effect by soil treatment (Table 19, symbol F); format: in vivo, southern crabgrass (Digitaria ciliaris)
Procedure, shortened: as §2

barnyard grass [3] = test: Test Example 3: herbicidal effect by foliage application, Wagner pot (Table 18, symbol H); format: in vivo, barnyard grass (Echinochloa crus-galli); details: for Herbicidal effect on H (barnyard grass), foliage application: amount of applied herbicide 320 g/ha
Procedure, shortened: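 Plants were sown in alluvial soil held under 0.1–0.5 cm standing water and grown 14 days in a greenhouse at 25–30 °C. An emulsifiable formulation, water-diluted to the set dose, was then sprayed onto the foliage, and effects were scored three weeks later using previously defined criteria.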

windgrass = test: Test Example 5: herbicidal effect by foliage application, plastic box (Table 20, symbol L); format: in vivo, windgrass (Apera spica-venti); details: foliage application; for L (windgrass) herbicidal effect grade: 320 g/ha, evaluated 3 weeks after application
Procedure, shortened: as §1

Japanese bulrush = test: Test Example 1: herbicidal activity, application before weed generation under submerged conditions (Table 16, symbol B); format: in vivo, Japanese bulrush (Schoenoplectus juncoides)
Procedure, shortened: (§4)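 Submerged Wagner pots (alluvial soil, 4 cm water) sown with weed seeds and planted with 2.5-leaf rice seedlings; emulsifiable concentrate diluted in water applied to water surface on sowing day. Held in greenhouse at 25-30 °C; injury scored 0-5 by herbicidal rate after three weeks.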

late watergrass [4] = test: Test Example 2: herbicidal activity, application during weed generation under submerged conditions (Table 17, symbol A); format: in vivo, late watergrass (Echinochloa oryzicola); details: for herbicidal effect rating, A: late watergrass: application during weed generation, submerged conditions
Procedure, shortened: as §3

chickweed = test: Test Example 4: herbicidal effect by soil treatment (Table 19, symbol P); format: in vivo, common chickweed (Stellaria media)
Procedure, shortened: as §2

southern crabgrass [5] = test: Test Example 5: herbicidal effect by foliage application, plastic box (Table 20, symbol F); format: in vivo, southern crabgrass (Digitaria ciliaris); details: foliage application; for F (southern crabgrass) herbicidal effect grade: 320 g/ha, evaluated 3 weeks after application
Procedure, shortened: as §1

persian speedwell = test: Test Example 5: herbicidal effect by foliage application, plastic box (Table 20, symbol R); format: in vivo, Persian speedwell (Veronica persica); details: foliage application; for R (persian speedwell) herbicidal effect grade: 320 g/ha, evaluated 3 weeks after application
Procedure, shortened: as §1

late watergrass [6] = test: Test Example 1: herbicidal activity, application before weed generation under submerged conditions (Table 16, symbol A); format: in vivo, late watergrass (Echinochloa oryzicola)
Procedure, shortened: as §4

false cleavers = test: Test Example 4: herbicidal effect by soil treatment (Table 19, symbol Q); format: in vivo, false cleavers (Galium spurium)
Procedure, shortened: as §2

wild oat = test: Test Example 5: herbicidal effect by foliage application, plastic box (Table 20, symbol I); format: in vivo, wild oat (Avena fatua); details: foliage application; for I (wild oat) herbicidal effect grade: 320 g/ha, evaluated 3 weeks after application
Procedure, shortened: as §1

[7] = 323 g/ha, three weeks after application
[8] = amount of applied herbicide 323 g/ha
[9] = amount of applied herbicide 320 g/ha
[10] = application during weed generation under submerged conditions, amount of applied herbicide 320 g/ha

SMILES: CCCC(=O)Oc1c(C)nn(C)c(=O)c1-c1c(-c2ccccc2OCC)sc2cc(OCC)ccc12 [3-094]
- N: redroot pigweed, herbicidal effect grade (redroot pigweed; [7]): 5 (Herbicidal rate of 90% or more (almost completely withered))
- O: lambsquarters, herbicidal effect grade (lambsquarters; [7]): 4 (Herbicidal rate of 70% or more and less than 90%)
- J: blackgrass, herbicidal effect grade (blackgrass; [8]): 2 (Herbicidal rate of 20% or more and less than 40%)
- G: green foxtail, herbicidal effect grade (green foxtail; [7]): 4 (Herbicidal rate of 70% or more and less than 90%)
- herbicidal effect rating, C: oval-leafed pondweed (oval-leafed pondweed; AAH 323 g/ha): 4 (Herbicidal rate of 70% or more and less than 90%)
- H: barnyard grass, herbicidal effect grade (barnyard grass [1]; [8]): 0 (Herbicidal rate of 5% or less (almost no effect))
- F: southern crabgrass, herbicidal effect grade (southern crabgrass [2]; [8]): 3 (Herbicidal rate of 40% or more and less than 70%)
- herbicidal effect on barnyard grass (H) (barnyard grass [3]; 323 g/ha): 5 (Herbicidal rate of 90% or more (almost completely withered))
- L: windgrass, herbicidal effect grade (windgrass; [7]): 5 (Herbicidal rate of 90% or more (almost completely withered))
- Herbicidal effect, B: Japanese bulrush (Japanese bulrush; [8]): 5 (Herbicidal rate of 90% or more (almost completely withered))
- herbicidal effect rating, A: late watergrass (late watergrass [4]; AAH 323 g/ha): 3 (Herbicidal rate of 40% or more and less than 70%)
- P: chickweed, herbicidal effect grade (chickweed; [8]): 4 (Herbicidal rate of 70% or more and less than 90%)
- F: southern crabgrass, herbicidal effect grade (southern crabgrass [5]; [7]): 4 (Herbicidal rate of 70% or more and less than 90%)
- R: persian speedwell, herbicidal effect grade (persian speedwell; [7]): 5 (Herbicidal rate of 90% or more (almost completely withered))
- Herbicidal effect, A: late watergrass (late watergrass [6]; [8]): 5 (Herbicidal rate of 90% or more (almost completely withered))
- Q: false cleavers, herbicidal effect grade (false cleavers; [8]): 4 (Herbicidal rate of 70% or more and less than 90%)
- I: wild oat, herbicidal effect grade (wild oat; [7]): 5 (Herbicidal rate of 90% or more (almost completely withered))

SMILES: COCCOc1ccc(-c2oc3ccc(F)cc3c2-c2c(O)c(C)nn(C)c2=O)cc1 [9-045]
- N (redroot pigweed) herbicidal effect grade (redroot pigweed): 5 (Herbicidal rate of 90% or more (almost completely withered))
- O (lambsquarters) herbicidal effect grade (lambsquarters): 5 (Herbicidal rate of 90% or more (almost completely withered))
- J: blackgrass, herbicidal effect grade (blackgrass; [9]): 5 (Herbicidal rate of 90% or more (almost completely withered))
- G (green foxtail) herbicidal effect grade (green foxtail): 5 (Herbicidal rate of 90% or more (almost completely withered))
- herbicidal effect rating, C: oval-leafed pondweed (oval-leafed pondweed; AAH 320 g/ha): 5 (Herbicidal rate of 90% or more (almost completely withered))
- H: barnyard grass, herbicidal effect grade (barnyard grass [1]; [9]): 5 (Herbicidal rate of 90% or more (almost completely withered))
- F: southern crabgrass, herbicidal effect grade (southern crabgrass [2]; [9]): 5 (Herbicidal rate of 90% or more (almost completely withered))
- Herbicidal effect on H (barnyard grass), foliage application (barnyard grass [3]): 5 (Herbicidal rate of 90% or more (almost completely withered))
- L (windgrass) herbicidal effect grade (windgrass): 3 (Herbicidal rate of 40% or more and less than 70%)
- Herbicidal effect, B: Japanese bulrush (Japanese bulrush; [9]): 5 (Herbicidal rate of 90% or more (almost completely withered))
- herbicidal effect rating, A: late watergrass (late watergrass [4]; AAH 320 g/ha): 3 (Herbicidal rate of 40% or more and less than 70%)
- P: chickweed, herbicidal effect grade (chickweed; [9]): 1 (Herbicidal rate of 5% or more and less than 20%)
- F (southern crabgrass) herbicidal effect grade (southern crabgrass [5]): 5 (Herbicidal rate of 90% or more (almost completely withered))
- R (persian speedwell) herbicidal effect grade (persian speedwell): 5 (Herbicidal rate of 90% or more (almost completely withered))
- Herbicidal effect, A: late watergrass (late watergrass [6]; [9]): 5 (Herbicidal rate of 90% or more (almost completely withered))
- Q: false cleavers, herbicidal effect grade (false cleavers; [9]): 0 (Herbicidal rate of 5% or less (almost no effect))
- I (wild oat) herbicidal effect grade (wild oat): 2 (Herbicidal rate of 20% or more and less than 40%)

SMILES: CCCOc1ccc(-c2oc3ccc(C)cc3c2-c2c(O)c(C)nn(C)c2=O)cc1 [9-049]
- N (redroot pigweed) herbicidal effect grade (redroot pigweed): 5 (Herbicidal rate of 90% or more (almost completely withered))
- O (lambsquarters) herbicidal effect grade (lambsquarters): 5 (Herbicidal rate of 90% or more (almost completely withered))
- J: blackgrass, herbicidal effect grade (blackgrass; [9]): 0 (Herbicidal rate of 5% or less (almost no effect))
- G (green foxtail) herbicidal effect grade (green foxtail): 5 (Herbicidal rate of 90% or more (almost completely withered))
- herbicidal effect rating, C: oval-leafed pondweed (oval-leafed pondweed; AAH 320 g/ha): 4 (Herbicidal rate of 70% or more and less than 90%)
- H: barnyard grass, herbicidal effect grade (barnyard grass [1]; [9]): 4 (Herbicidal rate of 70% or more and less than 90%)
- F: southern crabgrass, herbicidal effect grade (southern crabgrass [2]; [9]): 4 (Herbicidal rate of 70% or more and less than 90%)
- Herbicidal effect on H (barnyard grass), foliage application (barnyard grass [3]): 5 (Herbicidal rate of 90% or more (almost completely withered))
- L (windgrass) herbicidal effect grade (windgrass): 0 (Herbicidal rate of 5% or less (almost no effect))
- Herbicidal effect, B: Japanese bulrush (Japanese bulrush; [9]): 5 (Herbicidal rate of 90% or more (almost completely withered))
- herbicidal effect rating, A: late watergrass (late watergrass [4]; AAH 320 g/ha): 5 (Herbicidal rate of 90% or more (almost completely withered))
- P: chickweed, herbicidal effect grade (chickweed; [9]): 4 (Herbicidal rate of 70% or more and less than 90%)
- F (southern crabgrass) herbicidal effect grade (southern crabgrass [5]): 5 (Herbicidal rate of 90% or more (almost completely withered))
- R (persian speedwell) herbicidal effect grade (persian speedwell): 5 (Herbicidal rate of 90% or more (almost completely withered))
- Herbicidal effect, A: late watergrass (late watergrass [6]; [9]): 5 (Herbicidal rate of 90% or more (almost completely withered))
- Q: false cleavers, herbicidal effect grade (false cleavers; [9]): 0 (Herbicidal rate of 5% or less (almost no effect))
- I (wild oat) herbicidal effect grade (wild oat): 0 (Herbicidal rate of 5% or less (almost no effect))

SMILES: CCCC(=O)Oc1c(C)nn(C)c(=O)c1-c1c(-c2ccc(SCC)cc2)oc2ccc(C)cc12 [9-058]
- N (redroot pigweed) herbicidal effect grade (redroot pigweed): 5 (Herbicidal rate of 90% or more (almost completely withered))
- O (lambsquarters) herbicidal effect grade (lambsquarters): 5 (Herbicidal rate of 90% or more (almost completely withered))
- J: blackgrass, herbicidal effect grade (blackgrass; [9]): 0 (Herbicidal rate of 5% or less (almost no effect))
- G (green foxtail) herbicidal effect grade (green foxtail): 5 (Herbicidal rate of 90% or more (almost completely withered))
- herbicidal effect grade, C: oval-leafed pondweed (oval-leafed pondweed; [10]): 4 (Herbicidal rate of 70% or more and less than 90%)
- H: barnyard grass, herbicidal effect grade (barnyard grass [1]; [9]): 2 (Herbicidal rate of 20% or more and less than 40%)
- F: southern crabgrass, herbicidal effect grade (southern crabgrass [2]; [9]): 5 (Herbicidal rate of 90% or more (almost completely withered))
- Herbicidal effect on H (barnyard grass), foliage application (barnyard grass [3]): 5 (Herbicidal rate of 90% or more (almost completely withered))
- L (windgrass) herbicidal effect grade (windgrass): 0 (Herbicidal rate of 5% or less (almost no effect))
- Herbicidal effect, B: Japanese bulrush (Japanese bulrush; [9]): 5 (Herbicidal rate of 90% or more (almost completely withered))
- herbicidal effect grade, A: late watergrass (late watergrass [4]; [10]): 4 (Herbicidal rate of 70% or more and less than 90%)
- P: chickweed, herbicidal effect grade (chickweed; [9]): 3 (Herbicidal rate of 40% or more and less than 70%)
- F (southern crabgrass) herbicidal effect grade (southern crabgrass [5]): 4 (Herbicidal rate of 70% or more and less than 90%)
- R (persian speedwell) herbicidal effect grade (persian speedwell): 5 (Herbicidal rate of 90% or more (almost completely withered))
- Herbicidal effect, A: late watergrass (late watergrass [6]; [9]): 5 (Herbicidal rate of 90% or more (almost completely withered))
- Q: false cleavers, herbicidal effect grade (false cleavers; [9]): 0 (Herbicidal rate of 5% or less (almost no effect))
- I (wild oat) herbicidal effect grade (wild oat): 2 (Herbicidal rate of 20% or more and less than 40%)

Source: US20230085307A1, “PYRIDAZINONE COMPOUND AND HERBICIDE” (NISSAN CHEMICAL CORPORATION, priority 2019, published 2023)
